# Test results reported in patent publication US11958831B2, “Pyrazole compounds, pharmaceutical compositions thereof and use thereof” (ARTIVILA (SHENZHEN) INNOVATION CENTER, LTD., priority 2018, dated 2024).
# Molecular target: IRAK4 kinase (Homo sapiens (Human), UniProt Q9NWZ3)
# Assay: IRAK4 kinase activity assay (mobility shift, Km ATP)
# Format: biochemical
# Conditions: Km ATP (15.6 μM ATP), 1 nM IRAK4, 60 min room temperature
# Protocol: Inhibitory activity (IC50) of the compounds against IRAK4 kinase under Km ATP was detected through mobility spectrum analysis (MSA). IRAK4 kinase was purchased from Carna (Cat. No.: 09-145, batch No.: 14CBS-0020H), and Kinase Substrate 8 was purchased from GL Biochem (Cat. No.: 112396, batch No.: P171207-MJI112396).
# The compounds were prepared with DMSO to 100 times the final reaction concentration and diluted to 10 concentrations in sequence at a 3-fold dilution ratio starting from 1 μM. Then 0.25 μL was transferred to a 384-well plate using Echo550. A 1× kinase buffer (50 mM HEPES, pH=7.5, 0.0015% Brij-35, 10 mM MgCl2, 2 mM DTT) was used to prepare a kinase solution of 2.5 times the final concentration. Then 10 μL of the kinase solution of 2.5 times the final concentration was added to each compound well, shaken and mixed uniformly, and incubated at room temperature for 10 min. A 1× kinase buffer was used to prepare a mixed solution of ATP and substrate Kinase Substrate 8 with a concentration of 25/15 times the final concentration. 15 μL of the mixed solution of ATP and the substrate with a concentration of 25/15 times the final concentration were added to each well (the final concentration of IRAK4 kinase was 1 nM, the final concentration of the substrate was 3 μM, and the final concentration of ATP was 15.6 μM), shaken and mixed uniformly, and reacted at room temperature for 60 min. Finally, 30 μL of stopping solution (100 mM HEPES, pH=7.5, 0.0015% Brij-35, 0.2% Coating Reagent #3, 50 mM EDTA) was added to terminate the reaction. CaliperEZ Reader II was used to read data about conversion rates that was then converted into data about inhibition rates. According to the data about the inhibition rate at each concentration, the half maximal inhibitory concentration (IC50) (Table 1) was calculated by a Logit method.
# Sequence of IRAK4 kinase (Q9NWZ3 whole entry): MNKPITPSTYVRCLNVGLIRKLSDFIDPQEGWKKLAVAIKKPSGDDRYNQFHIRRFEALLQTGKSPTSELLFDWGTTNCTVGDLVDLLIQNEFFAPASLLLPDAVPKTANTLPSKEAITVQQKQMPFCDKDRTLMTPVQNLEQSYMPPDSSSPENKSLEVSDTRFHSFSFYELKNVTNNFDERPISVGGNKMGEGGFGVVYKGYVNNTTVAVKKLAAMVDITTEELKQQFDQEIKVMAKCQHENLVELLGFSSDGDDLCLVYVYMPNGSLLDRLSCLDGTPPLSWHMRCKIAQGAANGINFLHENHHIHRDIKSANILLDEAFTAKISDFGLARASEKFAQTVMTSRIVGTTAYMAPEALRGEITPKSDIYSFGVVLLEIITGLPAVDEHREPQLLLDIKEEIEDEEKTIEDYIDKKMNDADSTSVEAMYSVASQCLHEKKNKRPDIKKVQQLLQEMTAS
compound,measurement,value
"CC(=O)N1CCC(N2CC(n3cc(NC(=O)c4cccc(-c5cnn(C(F)F)c5)n4)c(C(F)F)n3)C2)CC1 [Example 5, N-(1-(1-(1-acetylpiperidin-4-yl)azetidin-3-yl)-3-(difluoromethyl)-1H-pyrazol-4-yl)-6-(1-(difluoromethyl)-1H-pyrazol-4-yl)-2-picolinamide]",IC50,4.3 nM
"CC(=O)N1CCC(N2CC(n3cc(NC(=O)c4cccc(-c5cnn(C)c5)n4)c(C(F)F)n3)C2)CC1 [Example 6, N-(1-(1-(1-acetylpiperidin-4-yl)azetidin-3-yl)-3-(difluoromethyl)-1H-pyrazol-4-yl)-6-(1-methyl-1H-pyrazol-4-yl)-2-picolinamide]",IC50,4.2 nM
"CCn1cc(-c2cccc(C(=O)Nc3cn(C4CN(C5CCN(C(C)=O)CC5)C4)nc3C(F)F)n2)cn1 [Example 7, N-(1-(1-(1-acetylpiperidin-4-yl)azetidin-3-yl)-3-(difluoromethyl)-1H-pyrazol-4-yl)-6-(1-ethyl-1H-pyrazol-4-yl)-2-picolinamide]",IC50,3.3 nM
"CC(=O)N1CCC(N2CC(n3cc(NC(=O)c4cccc(-c5cnn(C(C)C)c5)n4)c(C(F)F)n3)C2)CC1 [Example 8, N-(1-(1-(1-acetylpiperidin-4-yl)azetidin-3-yl)-3-(difluoromethyl)-1H-pyrazol-4-yl)-6-(1-isopropyl-1H-pyrazol-4-yl)-2-picolinamide]",IC50,1.9 nM
"CC(=O)N1CCC(N2CC(n3cc(NC(=O)c4cccc(-c5cnn(C6(C#N)CC6)c5)n4)c(C(F)F)n3)C2)CC1 [Example 9, N-(1-(1-(1-acetylpiperidin-4-yl)azetidin-3-yl)-3-(difluoromethyl)-1H-pyrazol-4-yl)-6-(1-(1-cyanocyclopropyl)-1H-pyrazol-4-yl)-2-picolinamide]",IC50,2.5 nM
"CC(=O)N1CCC(N2CC(n3cc(NC(=O)c4cccc(-c5cnn(C6(C#N)CCC6)c5)n4)c(C(F)F)n3)C2)CC1 [Example 10, N-(1-(1-(1-acetylpiperidin-4-yl)azetidin-3-yl)-3-(difluoromethyl)-1H-pyrazol-4-yl)-6-(1-(1-cyanocyclobutyl)-1H-pyrazol-4-yl)-2-picolinamide]",IC50,2 nM
"CC(=O)N1CCC(N2CC(n3cc(NC(=O)c4cccc(-c5cnn(C6(CN)CCC6)c5)n4)c(C(F)F)n3)C2)CC1 [Example 11, N-(1-(1-(1-acetylpiperidin-4-yl)azetidin-3-yl)-3-(difluoromethyl)-1H-pyrazol-4-yl)-6-(1-(1-(aminomethyl)cyclobutyl)-1H-pyrazol-4-yl)-2-picolinamide]",IC50,1.6 nM
"CC(=O)N1CCC(N2CC(n3cc(NC(=O)c4cccc(-c5cnn(C6(CO)CCC6)c5)n4)c(C(F)F)n3)C2)CC1 [Example 14, N-(1-(1-(1-acetylpiperidin-4-yl)azetidin-3-yl)-3-(difluoromethyl)-1H-pyrazol-4-yl)-6-(1-(1-(hydroxymethyl)cyclobutyl)-1H-pyrazol-4-yl)-2-picolinamide]",IC50,3.2 nM
"CC(=O)N1CCC(N2CC(n3cc(NC(=O)c4cccc(-c5cnn(CC(C)(C)O)c5)n4)c(C(F)F)n3)C2)CC1 [Example 15, N-(1-(1-(1-acetylpiperidin-4-yl)azetidin-3-yl)-3-(difluoromethyl)-1H-pyrazol-4-yl)-6-(1-(2-hydroxy-2-methylpropyl)-1H-pyrazol-4-yl)-2-picolinamide]",IC50,3.9 nM
"CC(=O)N1CCC(N2CC(n3cc(NC(=O)c4cccc(-c5cnn(C(C)(C)CO)c5)n4)c(C(F)F)n3)C2)CC1 [Example 16, N-(1-(1-(1-acetylpiperidin-4-yl)azetidin-3-yl)-3-(difluoromethyl)-1H-pyrazol-4-yl)-6-(1-(1-hydroxy-2-methylpropyl-2-yl)-1H-pyrazol-4-yl)-2-picolinamide]",IC50,1.8 nM
"CN(C)C(=O)N1CCC(N2CC(n3cc(NC(=O)c4cccc(-c5cnn(C(C)(C)CN)c5)n4)c(C(F)F)n3)C2)CC1 [Example 17, 6-(1-(1-Amino-2-methylpropan-2-yl)-1H-pyrazol-4-yl)-N-(3-(difluoromethyl)-1-(1-(1-(dimethylcarbamoyl)piperidin-4-yl)azetidin-3-yl)-1H-pyrazol-4-yl)-2-picolinamide]",IC50,0.57 nM
"COC(=O)N1CCC(N2CC(n3cc(NC(=O)c4cccc(-c5cnn(C(C)(C)CN)c5)n4)c(C(F)F)n3)C2)CC1 [Example 18, Methyl 4-(3-(4-(6-(1-(1-amino-2-methylpropan-2-yl)-1H-pyrazol-4-yl)-2-picolinamide)-3-(difluoromethyl)-1H-pyrazol-1-yl)azetidin-1-yl)piperidine-1-carboxylate]",IC50,0.67 nM
"CC(=O)N1CCC(N2CC(n3cc(NC(=O)c4cccc(-c5cn[nH]c5)n4)c(C(F)F)n3)C2)CC1 [Example 19, N-(1-(1-(1-acetylpiperidin-4-yl)azetidin-3-yl)-3-(difluoromethyl)-1H-pyrazol-4-yl)-6-(1H-pyrazol-4-yl)-2-picolinamide]",IC50,1.9 nM
"CN(C)C(=O)N1CCC(N2CC(n3cc(NC(=O)c4cccc(-c5cn[nH]c5)n4)c(C(F)F)n3)C2)CC1 [Example 20, N-(3-(difluoromethyl)-1-(1-(1-(dimethylcarbamoyl)piperidin-4-yl)azetidin-3-yl)-1H-pyrazol-4-yl)-6-(1H-pyrazol-4-yl)-2-picolinamide]",IC50,3.2 nM
"COC(=O)N1CCC(N2CC(n3cc(NC(=O)c4cccc(-c5cn[nH]c5)n4)c(C(F)F)n3)C2)CC1 [Example 21, Methyl 4-(3-(4-(6-(1H-pyrazol-4-yl)-2-picolinamide)-3-(difluoromethyl)-1H-pyrazol-1-yl)azetidin-1-yl)piperidine-1-carboxylate]",IC50,1.7 nM
"C=CC(=O)N1CCC(N2CC(n3cc(NC(=O)c4cccc(-c5cn[nH]c5)n4)c(C(F)F)n3)C2)CC1 [Example 22, N-(1-(1-(1-acryloylpiperidin-4-yl)azetidin-3-yl)-3-(difluoromethyl)-1H-pyrazol-4-yl)-6-(1H-pyrazol-4-yl)-2-picolinamide]",IC50,2.5 nM
"C=CC(=O)N1CCC(N2CC(n3cc(NC(=O)c4cccc(-c5cc[nH]n5)n4)c(C(F)F)n3)C2)CC1 [Example 23, N-(1-(1-(1-acryloylpiperidin-4-yl)azetidin-3-yl)-3-(difluoromethyl)-1H-pyrazol-4-yl)-6-(1H-pyrazol-3-yl)-2-picolinamide]",IC50,0.63 nM
"COC(=O)N1CCC(N2CC(n3cc(NC(=O)c4cccc(-c5cc[nH]n5)n4)c(C(F)F)n3)C2)CC1 [Example 25, Methyl 4-(3-(4-(6-(1H-pyrazol-3-yl)-2-picolinamide)-3-(difluoromethyl)-1H-pyrazol-1-yl)azetidin-1-yl)piperidine-1-carboxylate]",IC50,0.65 nM
"CCC(=O)N1CCC(N2CC(n3cc(NC(=O)c4cccc(-c5cc[nH]n5)n4)c(C(F)F)n3)C2)CC1 [Example 26, N-(3-(difluoromethyl)-1-(1-(1-propionylpiperidin-4-yl)azetidin-3-yl)-1H-pyrazol-4-yl)-6-(1H-pyrazol-3-yl)-2-picolinamide]",IC50,0.54 nM
"CN(C)C(=O)N1CCC(N2CC(n3cc(NC(=O)c4cccc(-c5cc[nH]n5)n4)c(C(F)F)n3)C2)CC1 [Example 28, N-(3-(difluoromethyl)-1-(1-(1-(dimethylcarbamoyl)piperidin-4-yl)azetidin-3-yl)-1H-pyrazol-4-yl)-6-(1H-pyrazol-3-yl)-2-picolinamide]",IC50,0.68 nM
"CC(C)C(=O)N1CCC(N2CC(n3cc(NC(=O)c4cccc(-c5cc[nH]n5)n4)c(C(F)F)n3)C2)CC1 [Example 29, N-(3-(difluoromethyl)-1-(1-(1-isobutyrylpiperidin-4-yl)azetidin-3-yl)-1H-pyrazol-4-yl)-6-(1H-pyrazol-3-yl)-2-picolinamide]",IC50,0.81 nM
"C[C@H](O)C(=O)N1CCC(N2CC(n3cc(NC(=O)c4cccc(-c5cnn(CC(F)(F)F)c5)n4)c(C(F)F)n3)C2)CC1 [Example 30, (S)—N-(3-(difluoromethyl)-1-(1-(1-(2-hydroxypropionyl)piperidin-4-yl)azetidin-3-yl)-1H-pyrazol-4-yl)-6-(1-(2,2,2-trifluoroethyl)-1H-pyrazol-4-yl)-2-picolinamide]",IC50,3.3 nM
"CS(=O)(=O)N1CCC(N2CC(n3cc(NC(=O)c4cccc(-c5cnn(CC(F)(F)F)c5)n4)c(C(F)F)n3)C2)CC1 [Example 33, N-(3-(difluoromethyl)-1-(1-(1-(methylsulfonyl)piperidin-4-yl)azetidin-3-yl)-1H-pyrazol-4-yl)-6-(1-(2,2,2-trifluoroethyl)-1H-pyrazol-4-yl)-2-picolinamide]",IC50,4.9 nM
"CS(=O)(=O)N1CCC(N2CC(n3cc(NC(=O)c4cccc(-c5cnn(CC(F)F)c5)n4)c(C(F)F)n3)C2)CC1 [Example 37, 6-(1-(2,2-Difluoroethyl)-1H-pyrazol-4-yl)-N-(3-(difluoromethyl)-1-(1-(1-(methylsulfonyl)piperidin-4-yl)azetidin-3-yl)-1H-pyrazol-4-yl)-2-picolinamide]",IC50,5.8 nM
